These results are taken from US20080280838A1, “Composition Containing Ginsenoside F1 and Egcg for Preventing Skin Damage” (Amorepacific Corporation, priority 2004, published 2008).

The structures appear in SMILES notation.

The subject of one assay is Bcl-2. Kind of assay: Western-blot analysis of UV-induced down-regulation of Bcl-2 expression in HaCaT cells. The following applies: 60 mJ/cm^2 UVB. The assay is classed as cell-based, Human. The protocol:
(§1) Human keratinocyte HaCaT cell line was provided by Dr. N. E. Fusenig (Deutsches Krebsforschungszentrum(DKFZ), Heidelberg, Germany) and cultured in DMEM (Dulbecco's modified Eagle's medium, Gibco 1210-0038) supplemented with 10% fetal bovine serum. Cultures were incubated at 37° C., in humidified air with 5% CO2.
Cell lines cultured in Step 1 were treated with trypsin to give a single-cell suspension and seeded into 6-well microplates at […] per well, then cultured for 24 hours. Subsequently, the culture medium was refreshed with serum-free DMEM and cells were cultured for another 24 hours. The microplates were then treated with 2 μM ginsenoside F1; 10 μM EGCG; a combination of 2 μM ginsenoside F1 and 10 μM EGCG; 5 μM ginsenoside F1; and 50 μM EGCG, respectively. Ginsenoside F1 was dissolved in 100% ethanol at a 1/1000-fold concentration to the medium and EGCG (Sigma) was dissolved in DMSO at a 1/1000-fold concentration to the medium. […]
24 hours after UV irradiation, cells treated with each compound or untreated were washed with PBS and harvested by treating with trypsin. […] Supernatants were collected by centrifugation at 15,000×g for 10 minutes at 4° C. and protein concentrations were determined using BIO-Rad Protein Dye Reagent™. […] The bands on the film were scanned using PowerLook 2100 XL (UMAX) and analyzed with ImageMaster 2D Elite software (Amersham Biosciences).

The test system of the next assay is HaCaT cells. The experiment in a line: MTT-reduction assay: antiapoptotic effect against UV-induced apoptosis in HaCaT cells. Type of assay: cell-based, Human. The following applies: 60 mJ/cm^2 UVB; for UV-caused apoptotic cell population compared with untreated control cells: 24 hours after UV irradiation. On the procedure: as §1
Cell lines cultured in Step 1 were treated with trypsin to give a single-cell suspension and seeded into a 6-well microplate at 2×10^5 cells per well, then cultured for 24 hours. Subsequently, the culture medium was refreshed with serum-free DMEM and cells were cultured for another 24 hours. The microplate was then treated with 2 μM ginsenoside F1; 10 μM EGCG; a combination of 2 μM ginsenoside F1 and 10 μM EGCG; 5 μM ginsenoside F1; and 50 μM EGCG in separate wells.
For reference, ginsenoside F1 was dissolved in 100% ethanol at a 1/1000-fold concentration to the medium and EGCG (Sigma) was dissolved in dimethyl sulfoxide (DMSO) at a 1/1000-fold concentration to the medium, and then added at the required amount to the culture mediums.
After 24-hour treatment of each test sample, each microplate was washed with phosphate buffered saline (PBS) and exposed to 60 mJ/cm^2 of UVB in the presence of PBS. PBS was then removed and the culture medium was refreshed with a medium containing each compound at the corresponding concentration. As a control, untreated cells were cultured in the same way.
24 hours after UV irradiation, to the microplates treated with each compound or untreated was added 3-(4,5-dimethyl thiazol-2-yl)-2,5-diphenyltetrazolium bromide (MTT, Sigma) solution, and then the cells were cultured at 37° C. for 4 hours. DMSO was added and dissolved completely. The optical density (OD) of formazan formed at 540 nm was measured using an ELISA reader (Thermo Max, Molecular Devices Co.). Cell viability in each test group was evaluated as a relative value, considering OD of untreated control cells as 100%.
Background: Tetrazolium dyes change colour on reduction, which living cells bring about.

For the compound `O=C(O[C@@H]1Cc2c(O)cc(O)cc2O[C@@H]1c1cc(O)c(O)c(O)c1)c1cc(O)c(O)c(O)c1` [EGCG, (−)epigallocatechin-3-gallate], in the assay with Bcl-2 (10 μM EGCG alone), the “Bcl-2 expression compared with the untreated control group” value is on record as “no difference”. In the assay with HaCaT cells (10 μM EGCG alone), the “UV-caused apoptotic cell population compared with untreated control cells” value is listed as “no difference”. For the same compound, the “antiapoptotic effect relative to combined treatment (2 μM ginsenoside F1 and 10 μM EGCG)” value in the assay on HaCaT cells (50 μM EGCG alone) is reported as “similar”.
As to `CC(C)=CCC[C@](C)(O[C@@H]1O[C@H](CO)[C@@H](O)[C@H](O)[C@H]1O)[C@H]1CC[C@]2(C)[C@@H]1[C@H](O)C[C@@H]1[C@@]3(C)CC[C@H](O)C(C)(C)[C@@H]3[C@@H](O)C[C@]12C` [ginsenoside F1, 20-O-β-D-glucopyranosyl-20(S)-protopanaxatriol], in the assay on Bcl-2 (2 μM ginsenoside F1 alone), the “Bcl-2 expression compared with the untreated control group” value is reported as “no difference”. Besides, in the assay on HaCaT cells (2 μM ginsenoside F1 alone), the “UV-caused apoptotic cell population compared with untreated control cells” value is “no difference”. The “antiapoptotic effect relative to combined treatment (2 μM ginsenoside F1 and 10 μM EGCG)” value in the assay with HaCaT cells (5 μM ginsenoside F1 alone) is “similar”.
